Measurements taken from patent US20260022143A1, “Cyclic Peptide Inhibitors of IL-23” (JANSSEN PHARMACEUTICA NV, priority 2022, published 2026).
Positions of bridges follow the written chain, without caps; N, C: chain ends. Non-standard residues stand in square brackets, D forms with d. Residues, ends and D or L forms follow the SMILES beside them. Trp(7-Me) = Cc1cccc2c(C[C@H](N)C(=O)O)c[nH]c12; 2Nal = N[C@@H](Cc1ccc2ccccc2c1)C(=O)O; AEF = NCCOc1ccc(C[C@H](N)C(=O)O)cc1; dNMeY = CN[C@H](Cc1ccc(O)cc1)C(=O)O; Pen = CC(C)(S)[C@H](N)C(=O)O; αMeK = C[C@](N)(CCCCN)C(=O)O

test: Exposed Polar Surface Area (EPSA); format: physicochemical; details: SFC on Chirex 3014 column; sample 1 mM DMSO stock
From the text: Exposed Polar Surface Area (EPSA) is an experimental descriptor of molecular polarity obtained from chromatographic retention in supercritical fluid chromatography (SFC).
The stationary phase (Chirex 3014(S)-valine and (R)-1-(alpha-naphthyl) ethylamine) was selected for its balance of lipophilic and polar attributes and its capacity to separate compounds with wide polarity differences. The mobile phase consists of methanol (+Ammonium formate) and CO2. Polar compounds are retained stronger under these conditions and a low-slope gradient of methanol achieves elution based on increasing polarity of the mobile phase. Results are normalized using calibration standards generating a linear relationship between retention times and EPSA values. The unit of EPSA is Å^2.
Along with the measurement of compounds of interest, a series of 8 calibration standards (see Materials) are analyzed generating a linear relationship between retention times and EPSA value. The 8 compounds used as calibration standard have their own EPSA value defined by G. Goetz based on the comparison with TPSA (see G. Goetz, L. Philippe and M. Shapiro, “EPSA: A novel supercritical fluid chromatography technique enabling the design of permeable cyclic peptides,” ACS Med. Chem. Lett., vol. 5, pp. 1167-1172, 2014 for more information). The slope from the linear relationship between EPSA values of these eight compounds and their retention times is used to determine the EPSA value of each compound of interest that's measured under the same condition using the equation as below: […]
The mixture of calibrations standard is reinjected every 20 compounds to validate the stability of the retention time.
The mobile phase modifier consists of ammonium formate LC_MS grade (>99%) (CAS number 540-69-2) diluted to 20 mM in HPLC grade Methanol (MeOH, CAS number 67-56-1) and liquid C02 SFC grade (CAS number 124-38-9).
Antipyrine (CAS number: 60-80-0) Chlorpromazine hydrochloride (CAS number: 69-09-0), desipramine hydrochloride (CAS number: […]), pindolol (CAS Number: 13523-86-9), diclofenac (CAS number: 15307-79-6)), m-nitro benzoic acid (CAS number: 121-92-6), bumetanide (CAS number: 28395-03-1), furosemide (CAS number: 54-31-9) were purchased from Sigma Aldrich (Steihneim, Germany).
All analyses were performed on a ultra performance convergence chromatography (UPC™) apparatus (Waters, Milford, MA, USA) equipped with a sample manager, a binary solvent delivery pump (BSM), a column manager, a convergence manager (automated back pressure regulator), a photo diode array detector (DAD) with a high pressure flow cell, and a mass detector simple quadrupole QDa. After the UV detector, the effluent of the SFC was mixed with an eluent consist of mixture MeOH/water (+0.3% Ammonia) 95/5 delivered by a make up pump with a flow rate of 0.4 mL/min and then split to the QDa using a splitter. The instrument was controlled, and data were processed with Masslynx 4.1.
The Analyses were performed using a 4.6×50 mm Chirex 3014(S)-valine and (R)-1-(alpha- naphthyl) ethylamine column (Phenomenex, Le Pecq, France) with 5 um particle and 100A pore size. The flow rate was 4 mL/min with the outlet pressure set to 14 MPa. The injection volume was 2 μL. the mobile phase composition was varied from 5% to 60% modifier at 20%/ min in a linear gradient, holding at 60% for 1.45 min and reverting to the original 5% until the end of the run. Data are acquired during 5 min. An equilibration time of 1 min is applied between 2 injections resulting in an injection every 6 min. each sample is analyzed in duplicate, resulting in a sample to sample turnaround time of 12 min.
The column temperature was set to 35° C. The mass detector was used in full scan from 100 to 800 for small molecules and from 500 to 1200 for peptides.
Each sample is delivered by compound logistics from DMSO stock solution without dilution. The concentration is 1 mM and the volume is 60 μL.

Question: For `CC(=O)N(C)CCCC[C@@H]1NC(=O)[C@H](Cc2c[nH]c3c(C)cccc23)NC(=O)[C@H]([C@@H](C)O)NC(=O)[C@H](CC(=O)N(C)C)NC(=O)[C@@H](NC(=O)CCOCCOCC[N+](C)(C)C)C(C)(C)SSC(C)(C)[C@@H](C(=O)N[C@@H](Cc2ccc(OCCN)cc2)C(=O)N[C@@H](Cc2ccc3ccccc3c2)C(=O)NC2(C(=O)N[C@@H](CCN(C)C(C)=O)C(=O)N[C@@H](CC(N)=O)C(=O)N[C@@H](Cc3cccnc3)C(=O)N(C)CC(=O)N(C)C)CCC(F)(F)C2)NC1=O` (single isomer, unassigned) [compound 180, cPEG3aCO-Pen(3)-N(N(Me)2)-T-7MeW-K(NMeAc)-Pen(3)-AEF-2Nal-diFCpx-Dab(NMeAc)-N-3Pya-Sar-CON(Me)2], which EPSA is on record?
Answer: 150.1 Å^2

Question: Which EPSA does the source give for `CC(=O)N(C)CCCC[C@@H]1NC(=O)[C@H](Cc2c[nH]c3c(C)cccc23)NC(=O)[C@H]([C@@H](C)O)NC(=O)[C@H](CC(=O)N(C)C)NC(=O)[C@@H](NC(=O)CCOCCOCC[N+](C)(C)C)C(C)(C)SSC(C)(C)[C@@H](C(=O)N[C@@H](Cc2ccc(OCC3CCC([N+](C)(C)C)CC3)cc2)C(=O)N[C@@H](Cc2ccc3ccccc3c2)C(=O)NC2(C(=O)N[C@@H](CCCCN(C)C(C)=O)C(=O)N[C@@H](CC(N)=O)C(=O)N[C@@H](Cc3cccnc3)C(=O)N(C)CC(=O)N(C)C)CCOCC2)NC1=O` (single isomer, unassigned) [compound 222, cPEG3aCO-Pen(3)-N(N(Me)2)-T-7MeW-K(NMeAc)-Pen(3)-ACHMF-2Nal-THP-K(NMeAc)-N-3Pya-Sar-CON(Me)2] here?
Answer: 142.87 Å^2

same assay, conditions: SFC on Chirex 3014 column; sample 1 mM DMSO stock; read-out: EPSA

Question: Which EPSA does the source give for `CC(=O)N(C)CCCC[C@@H]1NC(=O)[C@H](Cc2c[nH]c3c(C)cccc23)NC(=O)[C@H]([C@@H](C)O)NC(=O)[C@H](CC(=O)N(C)C)NC(=O)[C@@H](NC(=O)CCOCCOCC[N+](C)(C)C)C(C)(C)SSC(C)(C)[C@@H](C(=O)N[C@@H](Cc2ccc(OCC3CCC([N+](C)(C)C)CC3)cc2)C(=O)N[C@@H](Cc2ccc3ccccc3c2)C(=O)NC2(C(=O)N[C@@H](CCCCN(C)C(C)=O)C(=O)N[C@@H](CC(N)=O)C(=O)N[C@@H](Cc3cccnc3)C(=O)N(C)CC(=O)N(C)C)CCOCC2)NC1=O` (single isomer, unassigned) [compound 210, cPEG3aCO-Pen(3)-N(N(Me)2)-T-7MeW-K(NMeAc)-Pen(3)-ACHMF-2Nal-THP-K(NMeAc)-N-3Pya-Sar-CON(Me)2] here?
Answer: 145 A^2

Question: With `CC(=O)NCCCC[C@@H]1NC(=O)[C@H](Cc2c[nH]c3c(C)cccc23)NC(=O)[C@H]([C@@H](C)O)NC(=O)[C@H](CC(N)=O)NC(=O)[C@@H](NC(C)=O)C(C)(C)SSC(C)(C)[C@@H](C(=O)N[C@@H](Cc2ccc(OCC3CCC([N+](C)(C)C)CC3)cc2)C(=O)N[C@@H](Cc2ccc3ccccc3c2)C(=O)NC2(C(=O)N[C@@H](CCCCNC(C)=O)C(=O)N[C@@H](CC(N)=O)C(=O)N[C@@H](Cc3cccnc3)C(=O)N(C)CC(N)=O)CCOCC2)NC1=O` (single isomer, unassigned) [compound 530, MeCO-Pen(3)-N-T-7MeW-K(Ac)-Pen(3)-ACHMF(S*, S*)-2Nal-THP-K(Ac)-N-3Pya-Sar-CONH2] as the molecule, how does the EPSA read?
Answer: 166 A^2

Question: With `CC(=O)NCCCC[C@@H]1NC(=O)[C@H](Cc2c[nH]c3c(C)cccc23)NC(=O)[C@H]([C@@H](C)O)NC(=O)[C@H](CC(N)=O)NC(=O)[C@@H](NC(C)=O)C(C)(C)SSC(C)(C)[C@@H](C(=O)N[C@@H](Cc2ccc(OCCN)cc2)C(=O)N[C@@H](Cc2ccc3ccccc3c2)C(=O)NC2(C(=O)N[C@@H](CCC(=O)O)C(=O)N[C@@H](CC(N)=O)C(=O)N[C@@H](Cc3cccnc3)C(=O)N(C)CC(=O)N3CCOCC3)CCOCC2)NC1=O` [SEQ ID 112, MeCO-Pen(3)—N-T-7MeW—K(Ac)-Pen(3)-AEF-2Nal-THIP-E-N-3Pya-Sar-COMor] as the molecule, how does the EPSA read?
Answer: 169 A^2

Question: Which EPSA does the source give for `CC(=O)NCCCC[C@@H]1NC(=O)[C@H](Cc2c[nH]c3c(C)cccc23)NC(=O)[C@H]([C@@H](C)O)NC(=O)[C@H](CC(N)=O)NC(=O)[C@@H](NC(C)=O)C(C)(C)SSC(C)(C)[C@@H](C(=O)N[C@@H](Cc2ccc(OCCN)cc2)C(=O)N[C@@H](Cc2ccc3ccccc3c2)C(=O)N[C@@](C)(CCCCN)C(=O)N[C@H](CCCCNC(C)=O)C(=O)N[C@@H](CC(N)=O)C(=O)N[C@H](CCCCN)C(=O)N(C)[C@H](Cc2ccc(O)cc2)C(N)=O)NC1=O` [compound 5, MeCO-Pen(3)-N-T-7MeW-K(Ac)-Pen(3)-AEF-2Nal-aMeK-k(Ac)-N-dK-NMeDTyr-CONH2] (Ac-[Pen]NT[Trp(7-Me)]K(Ac)[Pen][AEF][2Nal][αMeK][dK](Ac)N[dK][dNMeY]-NH2; disulfide 1-6) here?
Answer: 168 A^2

Question: For `CC(=O)NCCCC[C@@H]1NC(=O)[C@H](Cc2c[nH]c3c(C)cccc23)NC(=O)[C@H]([C@@H](C)O)NC(=O)[C@H](CC(N)=O)NC(=O)[C@@H](NC(C)=O)C(C)(C)SSC(C)(C)[C@@H](C(=O)N[C@@H](Cc2ccc(OCCN)cc2)C(=O)N[C@@H](Cc2ccc3ccccc3c2)C(=O)N[C@@](C)(CCCCN)C(=O)N[C@@H](CCCCNC(C)=O)C(=O)N[C@@H](CC(N)=O)C(=O)N[C@@H](Cc2ccccc2)C(=O)N(C)[C@H](Cc2ccc(O)cc2)C(N)=O)NC1=O` [compound 7, MeCO-Pen(3)-N-T-7MeW-K(Ac)-Pen(3)-AEF-2Nal-aMeK-K(Ac)-N-F-NMeDTyr-CONH2] (Ac-[Pen]NT[Trp(7-Me)]K(Ac)[Pen][AEF][2Nal][αMeK]K(Ac)NF[dNMeY]-NH2; disulfide 1-6), which EPSA is on record?
Answer: 170 A^2

Question: For `CC(=O)NCCCC[C@@H]1NC(=O)[C@H](Cc2c[nH]c3c(C)cccc23)NC(=O)[C@H]([C@@H](C)O)NC(=O)[C@H](CC(N)=O)NC(=O)[C@@H](NC(C)=O)C(C)(C)SSC(C)(C)[C@@H](C(=O)N[C@@H](Cc2ccc(OCCN)cc2)C(=O)N[C@@H](Cc2ccc3ccccc3c2)C(=O)N[C@@](C)(CCCCN)C(=O)N[C@@H](CCCCNC(C)=O)C(=O)N[C@@H](CC(N)=O)C(=O)N[C@@H](Cc2c[nH]cn2)C(=O)N(C)[C@H](Cc2ccc(O)cc2)C(N)=O)NC1=O` [compound 8, MeCO-Pen(3)-N-T-7MeW-K(Ac)-Pen(3)-AEF-2Nal-aMeK-K(Ac)-N-H-NMeDTyr-CONH2] (Ac-[Pen]NT[Trp(7-Me)]K(Ac)[Pen][AEF][2Nal][αMeK]K(Ac)NH[dNMeY]-NH2; disulfide 1-6 (inferred)), which EPSA is on record?
Answer: 169 A^2

Question: With `CC(=O)NCCCC[C@@H]1NC(=O)[C@H](Cc2c[nH]c3c(C)cccc23)NC(=O)[C@H]([C@@H](C)O)NC(=O)[C@H](CC(N)=O)NC(=O)[C@@H](NC(=O)[C@@H](CCCNC(=N)N)NC(C)=O)C(C)(C)SSC(C)(C)[C@@H](C(=O)N[C@@H](Cc2ccc(OCCN)cc2)C(=O)N[C@@H](Cc2ccc3ccccc3c2)C(=O)N[C@@](C)(CCCCN)C(=O)N[C@@H](CCC(=O)O)C(=O)N[C@@H](CC(N)=O)C(=O)N[C@@H](Cc2c[nH]cn2)C(=O)N(C)[C@H](Cc2ccc(O)cc2)C(N)=O)NC1=O` [compound 9, MeCO-r-Pen(3)-N-T-7MeW-K(Ac)-Pen(3)-AEF-2Nal-aMeK-E-N-H-NMeDTyr-CONH2] (Ac-[dR][Pen]NT[Trp(7-Me)]K(Ac)[Pen][AEF][2Nal][αMeK]ENH[dNMeY]-NH2; disulfide 2-7) as the molecule, how does the EPSA read?
Answer: 187 A^2

Question: Which EPSA does the source give for `CC(=O)NCCCC[C@@H]1NC(=O)[C@H](Cc2c[nH]c3c(C)cccc23)NC(=O)[C@H]([C@@H](C)O)NC(=O)[C@H](CC(N)=O)NC(=O)[C@@H](NC(C)=O)C(C)(C)SSC(C)(C)[C@@H](C(=O)N[C@@H](Cc2ccc(OCCN)cc2)C(=O)N[C@@H](Cc2ccc3ccccc3c2)C(=O)N[C@@](C)(CCCCN)C(=O)N[C@@H](CCCCNC(C)=O)C(=O)N[C@@H](CC(N)=O)C(=O)N[C@@H](CC(N)=O)C(=O)N(C)[C@H](Cc2ccc(O)cc2)C(N)=O)NC1=O` [compound 13, MeCO-Pen(3)-N-T-7MeW-K(Ac)-Pen(3)-AEF-2Nal-aMeK-K(Ac)-N-N-NMeDTyr-CONH2] (Ac-[Pen]NT[Trp(7-Me)]K(Ac)[Pen][AEF][2Nal][αMeK]K(Ac)NN[dNMeY]-NH2; disulfide 1-6) here?
Answer: 174 A^2
